16 compounds from PMC7279355, “Preparation of Biphenyl-Conjugated Bromotyrosine for Inhibition of PD-1/PD-L1 Immune Checkpoint Interactions” (International Journal of Molecular Sciences, 2020) can be followed below.

Numbered stars: 1 amine (or outer) side, 2 acyl side, 3 side chain; on linkers, the order of the positions; unused ones are H or OH. Square brackets hold non-standard residues; d marks the D form. Peptide text beside a SMILES is read from it. X1 = Cc1c(COc2ccc(C[C@H](N[*:1])C(=O)[*:2])cc2Br)cccc1-c1ccccc1

The target in the first experiment is T1, PD-1/PD-L1 interaction (Homo sapiens, UniProt Q9NZQ7).
T1 construct: purchased PerkinElmer AL356 HV/C/F
T1 sequence (Q9NZQ7 19-238 limits assumed): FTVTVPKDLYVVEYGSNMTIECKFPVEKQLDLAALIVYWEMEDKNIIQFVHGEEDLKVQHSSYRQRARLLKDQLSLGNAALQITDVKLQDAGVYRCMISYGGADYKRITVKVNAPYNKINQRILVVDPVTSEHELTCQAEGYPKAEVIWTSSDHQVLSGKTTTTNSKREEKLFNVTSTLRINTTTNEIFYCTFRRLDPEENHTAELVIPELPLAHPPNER
Kind of experiment: AlphaLISA amplified luminescence proximity homogeneous assay, inhibition of PD-1/PD-L1 binding. The note with it: AlphaLISA, His-tagged PD-L1 and biotin-conjugated PD-1, 25 °C, 90 min.
Excerpt: To evaluate the binding affinities of the compounds for PD-L1, we used the amplified luminescence proximity homogeneous assay (Alpha) by using the AlphaLISA® assay kit [38]. This assay is based on photoinduced energy transfer between donor and acceptor beads conjugated to PD-1 and PD-L1, respectively (Figure S6).
In this assay, direct binding of an inhibitor to PD-L1 is detected by photoinduced energy transfer (Figure S6). Biotin-conjugated PD-1 is attached to streptavidin-coated donor beads and histidine (His)-tagged PD-L1 is attached to anti-His-conjugated acceptor beads. Photoexcitation of the donor beads at 680 nm yields singlet oxygen.
Positive and negative technical controls were included in parallel. Positive controls contained buffer (2 μL) in place of solution 1–10, and negative controls contained only the beads (2 μL each) and buffer (6 μL).
The reaction samples (10 μM) were placed in a 384-well microplate and photoirradiated at 680 nm from the top. […] IC50 values were estimated from a sigmoidal curve of fluorescence intensity vs. inhibitor concentration using a relative weighting method (1/Y^2 weighting) with GraphPad Prism 8 (GraphPad Software Inc., San Diego, CA, USA).
Compound `CSCC[C@H](NC(=O)[C@H](CCCCN)NC(=O)[C@H](CC(N)=O)NC(=O)[C@H](Cc1ccc(OCc2cccc(-c3ccccc3)c2C)c(Br)c1)NC(=O)[C@H](CCCNC(=N)N)NC(=O)[C@H](CCC(=O)O)NC(=O)[C@@H](N)CS)C(=O)O` [CERXNKM] (H-CER[X1]NKM-OH) came in with an IC50 of 308 µM. Same read-out and setting: the result for `Cc1c(CO)cccc1-c1ccccc1` [Compound1, 3-hydroxymethyl-2-methylbiphenyl] reads 309 µM; that for `CC(C)(C)OC(=O)[C@H](Cc1ccc(O)c(Br)c1)NC(=O)OCC1c2ccccc2-c2ccccc21` [Compound4, (S)-tert-Butyl 2-({[(9H-fluoren-9-yl)methoxy]carbonyl}amino)-3-(3-bromo-4-hydroxyphenyl)propanoate], 1060 µM; that for `Cc1c(COc2ccc(C[C@H](NC(=O)OCC3c4ccccc4-c4ccccc43)C(=O)OC(C)(C)C)cc2Br)cccc1-c1ccccc1` [Compound5, (S)-tert-Butyl 2-({[(9H-fluoren-9-yl)methoxy]carbonyl}amino)-3-{3-bromo-4-[(2-methyl-1,1’-biphenyl-3-yl)methoxy]phenyl}propanoate], 897 µM. `Cc1c(COc2ccc(C[C@H](NC(=O)OCC3c4ccccc4-c4ccccc43)C(=O)O)cc2Br)cccc1-c1ccccc1` [Compound6, (S)-2-({[(9H-fluoren-9-yl)methoxy]carbonyl}amino)-3-{3-bromo-4-[(2-methyl-1,1’-biphenyl-3-yl)methoxy]phenyl}propanoic acid]: the IC50 worked out at 1420 µM.

The compound `CC[C@H](C)[C@H](NC(=O)[C@H](CC(N)=O)NC(=O)[C@H](CC(N)=O)NC(=O)[C@H](Cc1ccc(OCc2cccc(-c3ccccc3)c2C)c(Br)c1)NC(=O)[C@H](CCCNC(=N)N)NC(=O)[C@H](Cc1c[nH]c2ccccc12)NC(=O)[C@@H](N)Cc1ccccc1)C(=O)O` [FWRXNNI] (H-FWR[X1]NNI-OH) gave a 50% inhibitory concentration (IC50) of 312 µM. For `Cc1c(COc2ccc(C[C@H](NC(=O)CN)C(=O)O)cc2Br)cccc1-c1ccccc1` [GX], the half-maximal inhibitory concentration (IC50) amounted to 448 µM. `Cc1c(COc2ccc(C[C@H](NC(=O)[C@@H](N)CCCNC(=N)N)C(=O)N[C@@H](CC(N)=O)C(=O)O)cc2Br)cccc1-c1ccccc1` [RXN] gave a 50% inhibitory concentration (IC50) of 405 µM. `Cc1c(COc2ccc(C[C@H](NC(=O)[C@@H](N)Cc3c[nH]c4ccccc34)C(=O)NCC(=O)O)cc2Br)cccc1-c1ccccc1` [WXG] came in with an IC50 of 405 µM. The compound `Cc1c(COc2ccc(C[C@H](N)C(=O)O)cc2Br)cccc1-c1ccccc1` [X, (S)-2-amino-3-[3-bromo-4-{(2-methyl-1,1′-biphenyl-3-yl)methoxy}phenyl]propanoic acid] displayed an IC50 of 1.5 µM. Against the preceding compound, the IC50 is about 270-fold lower.

For the compound `Cc1c(COc2ccc(C[C@H](N)C(=O)N[C@@H](C)C(=O)O)cc2Br)cccc1-c1ccccc1` [XA], the 50% inhibitory concentration (IC50) was found to be 22.3 µM. This IC50 lies about 15-fold higher than the previous one. The compound `Cc1c(COc2ccc(C[C@H](N)C(=O)NCC(=O)NCC(=O)O)cc2Br)cccc1-c1ccccc1` [XGG] registered an IC50 of 6510 µM. The compound `Cc1c(COc2ccc(C[C@H](N)C(=O)NCC(=O)O)cc2Br)cccc1-c1ccccc1` [XG] registered an IC50 of 2.1 µM.

With `Cc1c(COc2ccc(C[C@H](N)C(=O)N[C@@H](CO)C(=O)O)cc2Br)cccc1-c1ccccc1` [XS], the IC50 stood at 2650 µM. On to `Cc1c(COc2ccc(C[C@H](N)C(=O)N[C@@H](Cc3c[nH]c4ccccc34)C(=O)O)cc2Br)cccc1-c1ccccc1` [XW], for which the half-maximal inhibitory concentration (IC50) was found to be 845 µM.

Still in this experiment, the particulars now being: AlphaLISA, positive control.
With “nivolumab: anti-PD-1 mAb, positive control [reference compound]”, the IC50 came out at 0.0051 µM. That is a single-digit nanomolar value.

Staying with this experiment, now noted: X (1.5 μM) vs BMS-8 ([…]).
With `Cc1c(COc2ccc(C[C@H](N)C(=O)O)cc2Br)cccc1-c1ccccc1` [X, (S)-2-amino-3-[3-bromo-4-{(2-methyl-1,1′-biphenyl-3-yl)methoxy}phenyl]propanoic acid], the “improvement of IC50 relative to BMS-8” value is “about five”.
